Data published in article PMC8242589, “Cardiac Safety of Kinase Inhibitors – Improving Understanding and Prediction of Liabilities in Drug Discovery Using Human Stem Cell-Derived Models” (Frontiers in Cardiovascular Medicine, 2021).
Values joined by “and” are separate entries in the source; they are usually repeats but may differ in a detail not shown here. Identical values can stand only once. “Also recorded” adds a separate entry of the source.

Tests used:
[1] = tested on: hSC-CMs (Cor.4U Cardiomyocytes); assay: ATP assay (CellTiter-Glo Luminescent Cell Viability Assay); assay type: cell-based, human; conditions: for ATP: normalized to time-matched DMSO control
Description: Cor.4U® Cardiomyocytes (Ncardia, Netherlands) were cultured in 96-well plates at density of 25,000 – 30,000 cells per well. Cells were maintained at 5% CO2 and 37 °C for 4 days prior to experiments. The cell culture medium (Cor4U® Complete Culture Medium, cat# Ax-M-HC250E, Axiogenesis AG, Cologne, Germany) was changed every 24 h and was replaced by serum-free BMCC medium (cat# Ax-M-BMCC259, Axiogenesis AG, Cologne, Germany) 12 h prior to drug addition.
The CellTiter-Glo Luminescent Cell Viability Assay (cat# G7572, Promega, USA) was performed for quantification of the cellular ATP concentration according to manufacturer's instructions. Plates were shaken for 2 min in the dark, incubated at ambient temperature for 10 min before measuring luminescence (Integration time 0.1 seconds per well) with Luminescence Counter (Synergy H1, BioTek Instruments, Inc., Winooski, Vermont). The measured ATP concentration values were normalized to the time-matched DMSO controls. Data are representative of at least three replicates per concentration.

[2] = tested on: hSC-CMs (Cor.4U Cardiomyocytes); assay: CardioExcyte 96 impedance and EFP recording (beating rate, base impedance); assay type: cell-based, human; conditions: for BR / Base Imp: vs baseline before drug (taken as 100%)
Description: Cor.4U® Cardiomyocytes (Ncardia, Netherlands) were cultured in 96-well plates at density of 25,000 – 30,000 cells per well. Cells were maintained at 5% CO2 and 37 °C for 4 days prior to experiments.
Functional monitoring of cardiomyocytes was done using CardioExcyte® 96 (Nanion technologies GmbH, Germany). Extracellular field potential (EFP) and impedance signals were recorded from hSC-CMs that formed monolayers in the wells of the NSP-96 plate. Beating Rate (BR, per minute) was calculated as the reciprocal of the inter-spike interval (ISI) in EFP signal. Impedance signals from spontaneously beating hSC-CMs were recorded with a sampling rate of 1 ms (1 kHz), and EFP data were collected at 0.1ms (10 kHz). Data acquisition was controlled by CardioExcyte® 96 Control software as previously described ([22]). The functional parameters recorded in each concentration of test items were compared to the base line values before drug addition (taken as 100%) to define fractional change.

[3] = tested on: ROCK1; conditions: ref [36] (RKI-1447), [37], [38] (Fasudil), [39]–[43] (Y-27632), [44], [45] (GSK-429286); read-out: Target IC50 ROCK1; cited from earlier work
[4] = tested on: hSC-CMs (Cor.4U Cardiomyocytes); assay: Apoptosis assay (CellEvent Caspase-3/7 Green, IncuCyte ZOOM kinetics over 24 h); assay type: cell-based, human; set-up: key to Caspase / Caspase MEAN: % of time-matched vehicle control (green object area); conditions: for Caspase: normalized to time-matched vehicle control
Description: Cor.4U® Cardiomyocytes ([…], Netherlands) were cultured in 96-well plates at density of 25,000 - 30,000 cells per well. Cells were maintained at 5% CO2 and 37 °C for 4 days prior to experiments. […] The plates were incubated 2 h before compound treatment in the IncuCyte ZOOM (ESSEN BioScience, Ann Arbor, Michigan) to set a baseline before the 24 h compound treatment. […] Imaging was done using 10x microscope objective of the IncuCyteZOOM with four images per well-taken every 2 h in both phase-contrast and green fluorescence. The fluorescent nuclear signal of the apoptotic cells was separated from background with the integrated object counting algorithm, adjusted to cardiomyocytes, and the calculated total green object area per well (μm^2/well) plotted against time. Data were normalized to those of the time-matched vehicle control. Data were representative of at least three replicates per concentration.

[5] = tested on: PI3K p110β; conditions: ref [23]–[25] (NVP-BEZ235), [27] (LY 294002), [28] (GDC-0941), [32] (TGX-221), [33] (CAL-101), [35] (CZC24832); read-out: Target IC50 p110β; cited from earlier work

Work on `O=C(NCc1cccc(O)c1)Nc1nc(-c2ccncc2)cs1` [RKI-1447] yielded an ATP ([1]; 0.01 µM, 2h) of 98, an ATP ([1]; 0.01 µM, 24h) of 102 and an ATP ([1]; 0.1 µM, 2h) of 99. It also gave an ATP ([1]; 0.1 µM, 24h) of 99, an ATP ([1]; 1 µM, 2h) of 101 and an ATP ([1]; 1 µM, 24h) of 98. For the same compound, the ATP ([1]; 10 µM, 2h) was 104, the ATP ([1]; 10 µM, 24h) was 102 and the BR ([2]; 0.01 µM, 2h) was 107. The “Base Imp” value ([2]; 0.01 µM, 2h) was 87, the BR ([2]; 0.01 µM, 24h) was 100 and the “Base Imp” value ([2]; 0.01 µM, 24h) was 88. For the same compound, the BR ([2]; 0.1 µM, 2h) was 106, the “Base Imp” value ([2]; 0.1 µM, 2h) was 86 and the BR ([2]; 0.1 µM, 24h) was 101. The “Base Imp” value ([2]; 0.1 µM, 24h) was 81, the BR ([2]; 1 µM, 2h) was 110 and the “Base Imp” value ([2]; 1 µM, 2h) was 80. The BR ([2]; 1 µM, 24h) was 107, the “Base Imp” value ([2]; 1 µM, 24h) was 69 and the BR ([2]; 10 µM, 2h) was 112. The “Base Imp” value ([2]; 10 µM, 2h) was 68, the BR ([2]; 10 µM, 24h) was 115 and the “Base Imp” value ([2]; 10 µM, 24h) was 65. The “Effect on base impedance, in words” value ([2]; hSC-CMs, 2 and 24 h) was “concentration-and time-dependent decrease in base impedance; also recorded: concentration-dependent effects”, the IC50 [3] was 14.5 nM and the Caspase ([4]; 0.01 µM, 2h) was 116. For the same compound, the Caspase ([4]; 0.01 µM, 24h) was 115, the Caspase ([4]; 0.1 µM, 2h) was 117 and the Caspase ([4]; 0.1 µM, 24h) was 115. The Caspase ([4]; 1 µM, 2h) was 90, the Caspase ([4]; 1 µM, 24h) was 110 and the Caspase ([4]; 10 µM, 2h) was 93. It also gave a Caspase ([4]; 10 µM, 24h) of 129.

`Cc1cc(C(C)Nc2ccccc2)c2nc(N3CCOCC3)cc(=O)n2c1` (centres unmarked) [TGX-221] gave an ATP ([1]; 0.1 µM, 2h) of 105, an ATP ([1]; 0.1 µM, 24h) of 95 and an ATP ([1]; 0.3 µM, 2h) of 100. For the same compound, the ATP ([1]; 0.3 µM, 24h) was 96, the ATP ([1]; 1 µM, 2h) was 97 and the ATP ([1]; 1 µM, 24h) was 97. For the same compound, the ATP ([1]; 3 µM, 2h) was 104, the ATP ([1]; 3 µM, 24h) was 104 and the “Effect on ATP level, in words” value ([1]; hSC-CMs, up to the highest test concentrations) was “did not have any effect”. The IC50 [5] was 5 nM, the “Effect on hSC-CMs function (base impedance and beating rate), in words” value [2] was “did not have any effect” and the BR ([2]; 0.1 µM, 2h) was 98. The “Base Imp” value ([2]; 0.1 µM, 2h) was 107, the BR ([2]; 0.1 µM, 24h) was 94 and the “Base Imp” value ([2]; 0.1 µM, 24h) was 106. The BR ([2]; 0.3 µM, 2h) was 93, the “Base Imp” value ([2]; 0.3 µM, 2h) was 104 and the BR ([2]; 0.3 µM, 24h) was 91. The “Base Imp” value ([2]; 0.3 µM, 24h) was 100, the BR ([2]; 1 µM, 2h) was 94 and the “Base Imp” value ([2]; 1 µM, 2h) was 98. The BR ([2]; 1 µM, 24h) was 95, the “Base Imp” value ([2]; 1 µM, 24h) was 97 and the BR ([2]; 3 µM, 2h) was 95. The “Base Imp” value ([2]; 3 µM, 2h) was 97, the BR ([2]; 3 µM, 24h) was 89 and the “Base Imp” value ([2]; 3 µM, 24h) was 98. For the same compound, the “Change in the hSC-CMs parameters (surface plots: beating rate, base impedance, ATP)” value ([2]; hSC-CMs, 2 and 24 h) was “below 20%”, the “Apoptosis (caspase-3/7 activation), result in words” value [4] was “no effect” and the Caspase ([4]; 0.1 µM, 2h) was 104. It also gave a Caspase ([4]; 0.1 µM, 24h) of 87, a Caspase ([4]; 0.3 µM, 2h) of 112 and a Caspase ([4]; 0.3 µM, 24h) of 95. The Caspase ([4]; 1 µM, 2h) was 87, the Caspase ([4]; 1 µM, 24h) was 92 and 92.1743 and the Caspase ([4]; 3 µM, 2h) was 124. The Caspase ([4]; 3 µM, 24h) was 111 and 110.619.
